Measurements reported in ChEMBL document CHEMBL6153140, “Pestones A and B from a Fungus Pestalotiopsis sp. Bound to Mutant p53 and Changed Its Conformation” (J Nat Prod, 2025).
Activity calls are given as the source filed them. The calls are words filed in the database; no cut-off is given here.

Tests used:
SAOS-2 [1] = test: Effect on conformation of p53 […] mutant in human SAOS-2 cells at 2 uM incubated for 6 hrs by Hoechst 33342 staining based immunofluorescence analysis; assay type: functional, cell-based
[2] = Cytotoxicity against human SAOS-2 cells harboring p53 […] mutant incubated for 3 days by MTT assay; assay type: functional, cell-based; conditions: SAOS-2, 72 h
[3] = Induction of apoptosis in human SAOS-2 cells harboring p53 […] mutant assessed as early apoptotic cells at 4 uM incubated for 24 hrs by Annexin V-FITC/PI staining based flow cytometric analysis (reference value: 4.1%); assay type: functional
SAOS-2 [4] = test: Binding affinity to p53 […] mutant in human SAOS-2 cells assessed as thermal stabilization at 5 uM at 40 to 43 degreeC incubated for 1 hr by CETSA based Western blot analysis; assay type: cell-based
[5] = Induction of apoptosis in human SAOS-2 cells harboring p53 […] mutant assessed as viable cells at 4 uM incubated for 24 hrs by Annexin V-FITC/PI staining based flow cytometric analysis (reference value: 94.3%); assay type: functional; conditions: read-out: Activity
[6] = Induction of apoptosis in human SAOS-2 cells harboring p53 […] mutant assessed as late apoptotic cells at 4 uM incubated for 24 hrs by Annexin V-FITC/PI staining based flow cytometric analysis (reference value: 1.2%); assay type: functional
[7] = Induction of apoptosis in human SAOS-2 cells harboring p53 […] mutant assessed as necrotic cells at 4 uM incubated for 24 hrs by Annexin V-FITC/PI staining based flow cytometric analysis (reference value: 0.4%); assay type: functional
[8] = Induction of apoptosis in human SAOS-2 cells harboring p53 […] mutant assessed as fold increase in early apoptotic cells at 4 uM incubated for 24 hrs by Annexin V-FITC/PI staining based flow cytometric analysis; assay type: functional
[9] = Induction of apoptosis in human SAOS-2 cells harboring p53 […] mutant assessed as fold increase in late apoptotic cells at 4 uM incubated for 24 hrs by Annexin V-FITC/PI staining based flow cytometric analysis; assay type: functional
[10] = Toxicity in male BALB/c Slc-nu/nu mouse assessed as effect on body weight loss administered IT(Intratumoral) every other day and measured after 13 days; conditions: in vivo, 312 h, time 13 day
HuCCT-1 = test: Antitumor activity against human HuCCT-1 cells harboring p53 […] mutant xenografted in male BALB/c Slc-nu/nu mouse model assessed as reduction in tumor volume administered IT(Intratumoral) every other day and measured on day 13 (reference value: 56 to 98 mm3); assay type: functional; conditions: time 13 day
SAOS-2 [11] = test: Effect on conformation of p53 […] mutant in human SAOS-2 cells at 100 uM incubated for 6 hrs by Hoechst 33342 staining based immunofluorescence analysis; assay type: functional, cell-based

In the case of `CC(C)=C[C@@H](O)[C@]12O[C@H]1C(=O)C1=C(C2=O)C2[C@H](C)OC1[C@]13C(=O)[C@@]4([C@H](O)C=C(C)C)O[C@H]4C(=O)C1=CO[C@@H](C)[C@H]23` (some centres not stated), the Activity (SAOS-2 [1]) is reported as “Active” and the IC50 [2] is reported as 1100 nM.

In the case of `CC(C)=C[C@@H](O)[C@]12O[C@H]1C(=O)C1=C(C2=O)C2[C@@H]3[C@@H](C)OC=C4C(=O)[C@@H]5O[C@]5([C@H](O)C=C(C)C)C(=O)[C@]43C1O[C@@H]2C` (some centres not stated), the Activity [3] is reported as 13.6%, the Activity (SAOS-2 [4]) is reported as “Active” and the viability at 4 µM [5] is reported as 80%. The Activity [6] was 5.7%, the Activity [7] was 0.7% and the “fold change (FC)” value [8] was 3.3. The Activity (SAOS-2 [1]) was “Active”, the “fold change (FC)” value [9] was 4.8 and the Activity [10] was “Non-toxic”. The Activity (HuCCT-1) was 140 mm3 and the IC50 [2] was 1000 nM.

With `C/C=C/C1=C(CO)[C@@H](O)[C@@H]2O[C@]2([C@H](O)C=C(C)C)C1=O` the IC50 [2] was > 20000 nM and the Activity (SAOS-2 [11]) was “inactive”.

Compound `C/C=C/C1=C(CO)C(=O)[C@@H]2O[C@]2([C@H](O)C=C(C)C)C1=O` has an IC50 [2] of 920 nM.

With `CC(C)=C[C@@H](O)[C@]12O[C@H]1[C@H](O)C1=C(C2=O)C2C(C)OC1[C@]13C(=O)[C@@]4([C@H](O)C=C(C)C)O[C@H]4[C@H](O)C1=CO[C@@H](C)[C@H]23` (some centres not stated) the IC50 [2] was > 20000 nM.
